Measurements from patent publication US20120264735A1 (priority 2009, published 2012).

The compounds below were run against T1, c-Met kinase (recombinant c-Met) (Homo sapiens, UniProt P08581) (assay: In vitro kinase assay I (homogeneous time-resolved fluorescence tyrosine kinase assay)).
T1 construct: 0.27 nM recombinant c-Met
Format: biochemical
Method in brief: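 Biotinylated peptide (0.5 μM) phosphorylated by 0.2 nM recombinant c-Met with 50 μM MgATP, 60 min at room temperature, pH 7.4, 5% DMSO. EDTA stop; HTRF read with Eu-anti-phosphotyrosine antibody and streptavidin-APC. IC50 from 4-parameter logistic fit.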

T1 sequence (P08581 25-1390): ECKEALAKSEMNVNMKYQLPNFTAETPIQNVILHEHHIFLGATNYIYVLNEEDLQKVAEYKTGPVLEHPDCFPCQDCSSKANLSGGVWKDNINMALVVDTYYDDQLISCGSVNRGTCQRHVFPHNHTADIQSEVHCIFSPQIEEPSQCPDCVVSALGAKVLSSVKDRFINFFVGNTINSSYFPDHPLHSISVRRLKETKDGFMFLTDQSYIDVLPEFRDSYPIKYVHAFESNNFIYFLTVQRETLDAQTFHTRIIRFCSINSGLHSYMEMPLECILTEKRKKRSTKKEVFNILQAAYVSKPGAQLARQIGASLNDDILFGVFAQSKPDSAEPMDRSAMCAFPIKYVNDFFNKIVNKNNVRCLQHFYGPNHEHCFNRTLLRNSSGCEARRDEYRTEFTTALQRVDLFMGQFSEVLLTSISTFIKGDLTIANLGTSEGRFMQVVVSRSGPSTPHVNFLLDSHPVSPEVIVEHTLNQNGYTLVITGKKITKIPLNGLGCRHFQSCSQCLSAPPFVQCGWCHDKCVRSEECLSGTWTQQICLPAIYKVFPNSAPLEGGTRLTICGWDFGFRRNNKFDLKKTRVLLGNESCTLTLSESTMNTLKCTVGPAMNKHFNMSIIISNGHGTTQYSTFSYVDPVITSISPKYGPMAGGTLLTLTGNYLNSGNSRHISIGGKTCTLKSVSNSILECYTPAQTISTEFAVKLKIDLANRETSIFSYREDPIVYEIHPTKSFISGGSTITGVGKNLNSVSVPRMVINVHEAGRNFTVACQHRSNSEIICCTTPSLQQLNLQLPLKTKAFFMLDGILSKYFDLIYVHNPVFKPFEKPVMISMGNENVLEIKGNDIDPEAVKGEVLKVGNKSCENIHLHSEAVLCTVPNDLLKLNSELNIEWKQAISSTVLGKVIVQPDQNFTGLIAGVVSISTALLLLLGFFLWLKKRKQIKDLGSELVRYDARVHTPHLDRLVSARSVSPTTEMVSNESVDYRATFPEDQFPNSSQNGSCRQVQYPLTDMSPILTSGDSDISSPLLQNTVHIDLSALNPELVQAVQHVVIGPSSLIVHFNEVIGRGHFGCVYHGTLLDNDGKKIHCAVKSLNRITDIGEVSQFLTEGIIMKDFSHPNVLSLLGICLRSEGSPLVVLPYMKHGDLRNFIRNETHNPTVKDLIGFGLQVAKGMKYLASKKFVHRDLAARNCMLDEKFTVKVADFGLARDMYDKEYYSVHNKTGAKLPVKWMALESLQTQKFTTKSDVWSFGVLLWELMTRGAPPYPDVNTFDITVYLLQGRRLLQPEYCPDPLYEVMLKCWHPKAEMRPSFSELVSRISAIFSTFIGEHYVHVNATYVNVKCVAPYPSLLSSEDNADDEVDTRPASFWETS

Structure (SMILES)	IC50
Cn1cc(-n2ccc(=O)c(Cc3cccc(NC(=O)OCC(F)(F)CN)c3)n2)cn1 [Example 614, 3-Amino-2,2-difluoropropyl (3-{[1-(1-methyl-1H-pyrazol-4-yl)-4-oxo-1,4-dihydropyridazin-3-yl]methyl}phenyl)carbamate]	< 100 nM
Cn1cc(-n2ccc(=O)c(Cc3cccc(-c4ncc(OCC(=O)O)cn4)c3)n2)cn1 [Example 357, [2-(3-{[1-(1-Methyl-1H-pyrazol-4-yl)-4-oxo-1,4-dihydropyridazin-3-yl]methyl}phenyl)pyrimidin-5-yl]oxyacetic acid]	< 100 nM
CCn1cc(-n2ccc(=O)c(C(C)c3cccc(-c4ncc(OC)cn4)c3)n2)cn1 (single isomer, unassigned) [Example 333, 1-(1-ethyl-1H-pyrazol-4-yl)-3-{(1R or S)-1-[3-(5-methoxypyrimidin-2-yl)phenyl]ethyl}pyridazin-4(1H)-one]	< 100 nM
Cn1cc(-n2ccc(=O)c(Cc3cccc(-c4ncc(CN5CCNCC5)cn4)c3)n2)cn1 [Example 433]	< 100 nM
Cn1cc(-n2ccc(=O)c(Cc3cccc(-c4ncc(-c5cc[nH]n5)cn4)c3)n2)cn1 [Example 420, 1-(1-methyl-1H-pyrazol-4-yl)-3-{3-[5-(1H-pyrazol-3-yl)pyrimidin-2-yl]benzyl}pyridazin-4(1H)-one]	< 100 nM
CCn1cnc(-c2cccc(Cc3nn(-c4cnn(CCOCc5ccccc5)c4)ccc3=O)c2)n1 [Example 88, 1-{1-[2-(benzyloxy)ethyl]-1H-pyrazol-4-yl}-3-[3-(1-ethyl-1H-1,2,4-triazol-3-yl)benzyl]pyridazin-4(1H)-one]	100 to 1000 nM
CCn1cc(-n2ccc(=O)c(Cc3cccc(-c4ncc(OC5CCOC5)cn4)c3)n2)cn1 (racemic) [Example 309, rac-1-(1-ethyl-1H-pyrazol-4-yl)-3-{3-[5-(tetrahydrofuran-3-yloxy)pyrimidin-2-yl]benzyl}pyridazin-4(1H)-one]	< 100 nM
COCCOC(=O)Nc1cccc(C(C)c2nn(-c3cnn(C)c3)ccc2=O)c1 (single isomer, unassigned) [Example 653, 2-methoxyethyl (3-{(1R or S)-1-[1-(1-methyl-1H-pyrazol-4-yl)-4-oxo-1,4-dihydropyridazin-3-yl]ethyl}phenyl)carbamate]	100 to 1000 nM
CCn1cc(-n2ccc(=O)c(C(C)c3cccc(-c4ncc(OCc5cc(C)no5)cn4)c3)n2)cn1 (single isomer, unassigned) [Example 301, 1-(1-ethyl-1H-pyrazol-4-yl)-3-[(1R or S)-1-(3-{5-[(3-methylisoxazol-5-yl)methoxy]pyrimidin-2-yl}phenyl)ethyl]pyridazin-4(1H)-one]	< 100 nM
Cc1cnccc1-c1cnc(-c2cccc(Cc3nn(-c4cnn(C)c4)ccc3=O)c2)nc1 [Example 416, 1-(1-methyl-1H-pyrazol-4-yl)-3-{3-[5-(3-methylpyridin-4-yl)pyrimidin-2-yl]benzyl}pyridazin-4(1H)-one]	< 100 nM
Cn1cc(-n2ccc(=O)c(Cc3cccc(N4CCOC4=O)c3)n2)cn1 [Example 637, 1-(1-Methyl-1H-pyrazol-4-yl)-3-[3-(2-oxo-1,3-oxazolidin-3-yl)benzyl]pyridazin-4(1H)-one]	1000 to 3000 nM
Cn1cc(-n2ccc(=O)c(Cc3ccc4cnccc4c3)n2)cn1 [Example 74, 3-(isoquinolin-6-ylmethyl)-1-(1-methyl-1H-pyrazol-4-yl)pyridazin-4(1H)-one]	100 to 1000 nM
COC(=O)CCCn1cc(-n2ccc(=O)c(Cc3cccc(NC(=O)OCC(C)C)c3)n2)cn1 [Example 179, methyl 4-{4-[3-(3-{[(2-methylpropoxy)carbonyl]amino}benzyl)-4-oxopyridazin-1(4H)-yl]-1H-pyrazol-1-yl}butanoate]	< 100 nM
CCn1cc(-n2ccc(=O)c(C(C)c3cccc(-c4ncc(OCC5(F)CCNCC5)cn4)c3)n2)cn1 (single isomer, unassigned) [Example 338, 1-(1-ethyl-1H-pyrazol-4-yl)-3-[(1R or S)-1-(3-{5-[(4-fluoropiperidin-4-yl)methoxy]pyrimidin-2-yl}phenyl)ethyl]pyridazin-4(1H)-one]	< 100 nM
CCCCc1nc(-c2cccc(Cc3nn(-c4cnn(C)c4)ccc3=O)c2)no1 [Example 741, 3-[3-(5-butyl-1,2,4-oxadiazol-3-yl)benzyl]-1-(1-methyl-1H-pyrazol-4-yl)pyridazin 4(1H)-one]	100 to 1000 nM
N#Cc1cccc(-n2ccc(=O)c(Cc3cccc(NC(=O)OCCn4cncn4)c3)n2)c1 [Example 587, 2-(1H-1,2,4-triazol-1-yl)ethyl (3-{[1-(3-cyanophenyl)-4-oxo-1,4-dihydropyridazin-3-yl]methyl}phenyl)carbamate]	< 100 nM
COc1cnc(-c2cccc(Cc3nn(-c4cncc(C)c4)ccc3=O)c2)nc1 [Example 37, 3-[3-(5-methoxypyrimidin-2-yl)benzyl]-1-(5-methylpyridin-3-yl)pyridazin-4(1H)-one]	< 100 nM

Structure (SMILES)	IC50
O=c1ccn(-c2ccc(F)c(F)c2)nc1Cc1cccc(-c2ncc(OCC3CCOC3)cn2)c1 (single isomer, unassigned) [Example 351, 1-(3,4-difluorophenyl)-3-(3-{5-[(3R or S)-tetrahydrofuran-3-ylmethoxy]pyrimidin-2-yl}benzyl)pyridazin-4(1H)-one]	< 100 nM
CCOc1cnc(-c2cccc(C(F)c3nn(-c4cnn(C)c4)ccc3=O)c2)nc1 (single isomer, unassigned) [Example 656, 3-[(R or S)-[3-(5-ethoxypyrimidin-2-yl)phenyl](fluoro)methyl]-1-(1-methyl-1H-pyrazol-4-yl)pyridazin-4(1H)-one]	< 100 nM
CC(C)COC(=O)Nc1cccc(Cc2nn(-c3cnn(CCCC(=O)NC4COC4)c3)ccc2=O)c1 [Example 701, 2-methylpropyl {3-[(1-{1-[4-(oxetan-3-ylamino)-4-oxobutyl]-1H-pyrazol-4-yl}-4-oxo-1,4-dihydropyridazin-3-yl)methyl]phenyl} carbamate]	< 100 nM
O=C(Nc1cccc(Cc2nn(-c3cc(F)cc(F)c3)ccc2=O)c1)OCCN1CCNCC1 [Example 628, 2-piperazin-1-ylethyl (3-{[1-(3,5-difluorophenyl)-4-oxo-1,4-dihydropyridazin-3-yl]methyl}phenyl)carbamate]	< 100 nM
Cn1cc(-n2ccc(=O)c(Cc3cccc(NC(=O)OCC(F)F)c3)n2)cn1 [Example 576, 2,2-difluoroethyl (3-{[1-(1-methyl-1H-pyrazol-4-yl)-4-oxo-1,4-dihydropyridazin-3-yl]methyl}phenyl)carbamate]	< 100 nM
Cn1cc(-n2ccc(=O)c(Cc3cccc(-c4ncn(C5COC5)n4)c3)n2)cn1 [Example 707, 1-(1-Methyl-1H-pyrazol-4-yl)-3-{3-[1-(oxetan-3-yl)-1H-1,2,4-triazol-3-yl]benzyl}pyridazin-4(1H)-one]	100 to 1000 nM
Cn1cc(-n2ccc(=O)c(Cc3cccc(-c4ncc(OCC5CCOC5)cn4)c3)n2)cn1 (racemic) [Example 266, rac-1-(1-methyl-1H-pyrazol-4-yl)-3-{3-[5-(tetrahydrofuran-3-ylmethoxy)pyrimidin-2-yl]benzyl}pyridazin-4(1H)-one]	< 100 nM
CCCn1cnc(-c2cccc(Cc3nn(-c4cnn(CC)c4)ccc3=O)c2)n1 [Example 87, 1-(1-ethyl-1H-pyrazol-4-yl)-3-[3-(1-propyl-1H-1,2,4-triazol-3-yl)benzyl]pyridazin-4(1H)-one]	< 100 nM
CCn1cc(-n2ccc(=O)c(Cc3cccc(-c4ncc(-c5cnn(C)c5)cn4)c3)n2)cn1 [Example 157, 1-(1-ethyl-1H-pyrazol-4-yl)-3-{3-[5-(1-methyl-1H-pyrazol-4-yl)pyrimidin-2-yl]benzyl}pyridazin-4(1H)-one]	< 100 nM
COCCOCCOC(=O)Nc1cccc(Cc2nn(-c3ccc(F)c(F)c3)ccc2=O)c1 [Example 602, 2-(2-methoxyethoxy)ethyl (3-{[1-(3,4-difluorophenyl)-4-oxo-1,4-dihydropyridazin-3-yl]methyl}phenyl)carbamate]	< 100 nM
CCOc1cnc(-c2cccc(C(OC)c3nn(-c4cnn(C)c4)ccc3=O)c2)nc1 (racemic) [Example 659, rac-3-[[3-(5-Ethoxypyrimidin-2-yl)phenyl](methoxy)methyl]-1-(1-methyl-1H-pyrazol-4-yl)pyridazin-4(1H)-one]	100 to 1000 nM
CCOC(=O)Nc1cccc(Cc2nn(-c3cnn(CCOC)c3)ccc2=O)c1 [Example 106, ethyl [3-({1-[1-(2-methoxyethyl)-1H-pyrazol-4-yl]-4-oxo-1,4-dihydropyridazin-3-yl}methyl)phenyl]carbamate]	100 to 1000 nM
O=C(Nc1cccc(Cc2nn(-c3cc(F)c(F)c(F)c3)ccc2=O)c1)OCCCN1CCCC1 [Example 554, 3-pyrrolidin-1-ylpropyl (3-{[4-oxo-1-(3,4,5-trifluorophenyl)-1,4-dihydropyridazin-3-yl]methyl}phenyl)carbamate]	< 100 nM
CC(C)COC(=O)Nc1cccc(Cc2nn(-c3ccc(-c4cnn(C)c4)cc3)ccc2=O)c1 [Example 732, 2-methylpropyl [3-({1-[4-(1-methyl-1H-pyrazol-4-yl)phenyl]-4-oxo-1,4-dihydropyridazin-3-yl}methyl)phenyl] carbamate]	100 to 1000 nM
CCCn1cnc(-c2cccc(C(C)c3nn(-c4cnn(CC)c4)ccc3=O)c2)n1 (single isomer, unassigned) [Example 688, 1-(1-ethyl-1H-pyrazol-4-yl)-3-{(1S or R)-1-[3-(1-propyl-1H-1,2,4-triazol-3-yl)phenyl]ethyl} pyridazin-4(1H)-one]	100 to 1000 nM
CC(Oc1cnc(-c2cccc(Cc3nn(-c4cnn(C)c4)ccc3=O)c2)nc1)C(C)(C)O (racemic) [Example 366, rac-3-{3-[5-(2-hydroxy-1,2-dimethylpropoxy)pyrimidin-2-yl]benzyl}-1-(1-methyl-1H-pyrazol-4-yl)pyridazin-4(1H)-one]	< 100 nM
O=C(Nc1cccc(Cc2nn(-c3cc(F)c(F)c(F)c3)ccc2=O)c1)OCCN1CCCC1=O [Example 549, 2-(2-oxopyrrolidin-1-yl)ethyl (3-{[4-oxo-1-(3,4,5-trifluorophenyl)-1,4-dihydropyridazin-3-yl]methyl}phenyl)carbamate]	< 100 nM
